US12156871B2, “Substituted azacycles as muscarinic M1 receptor positive allosteric modulators” (SUVEN LIFE SCIENCES LIMITED, priority 2017, dated 2024)

Columns and labels:
[1] = Rodent brain penetration study; assay type: in vivo, Male Wistar rats; conditions: male, Wistar, brain/plasma, po; rat, 3 mg/kg, p.o. @ 1.0 hr; read-out: Single dose Rat Brain Penetration (Cb/Cp)
Method: Male Wistar rats (260±40 grams) were used as experimental animals. Three animals were housed in each cage. Animals were given water and food ad libitum throughout the experiment and maintained on a 12 h light/dark cycle.
Brain penetration was determined in discrete manner in rats. One day prior to dosing day, male Wistar rats were acclimatized and randomly grouped according to their weight. At each time point (0.5, 1 and 2 h) n=3 animals were used.
The test compounds were suitably preformulated and administered orally at (free base equivalent) 3 mg/kg. Blood samples were removed via cardiac puncture by using isoflurane anesthesia. The animals were sacrificed to collect brain tissue. Plasma was separated and brain samples were homogenized and stored frozen at −20° C. until analysis. The concentrations of the test compounds in plasma and brain were determined using LC-MS/MS method.
The test compounds were quantified in plasma and brain homogenate by qualified LC-MS/MS method using suitable extraction technique. The test compounds were quantified in the calibration range of 1-500 ng/mL in plasma and brain homogenate. Study samples were analyzed using calibration samples in the batch and quality control samples spread across the batch.

[2] = Protein binding assay (HT dialysis), rat plasma; assay type: in vitro ADME; conditions: pH 7.4, Mean ± SEM, n = 3, read-out: Fu Plasma
Method: (§1) Unbound fractions of test compounds in plasma, brain homogenate and liver microsomes were determined using high-throughput dialysis (HT dialysis). Briefly, dialysis membranes were soaked in deionized water for 20 minutes and then in deionized water with 30% ethanol for 15 minutes and finally in phosphate buffer until use. Membranes were rinsed in phosphate buffer before assembling. The membranes were layered between teflon bars of dialysis assembly. Stock solutions of test compound/comparative compound were prepared at 10 mM in DMSO, diluted to 1 mM in acetonitrile and further diluted to 100 μM in mixture of water and acetonitrile (1:1 v/v). Human plasma (pool of 3) was prepared from human blood (3 donors) by centrifuging at 4000 rpm for 10 min at 4° C. Rat and dog blood were obtained on the day of the study and centrifuged to obtain plasma. Rat brains were isolated, cleaned and homogenized with 2 volumes of buffer (3 fold dilution). Liver microsomes were prepared at 0.5 mg/mL in phosphate buffer (100 mM, pH 7.4). The dialysate chambers were loaded with 150 μL of 100 mM phosphate buffer (pH 7.4) in triplicates. The matrix chambers were loaded with 150 μL of the plasma or brain homogenate or microsomal suspension spiked with test compound/comparative compound at a final concentration of 1 μM. 50 μL of the sample was removed from both the chambers at 0 h. The plate was sealed and incubated at 37° C. for 6 h at 100 rpm. After 6 h, 50 μL of the sample was removed from both the chambers. Equal volumes of buffer or human plasma/microsomal suspension were added to the plasma/microsomal and buffer samples respectively to create identical sample matrices for analysis. The samples were precipitated with 150 μL of acetonitrile containing fluoxetine as an internal standard. All the samples were centrifuged at 10000 rpm for 10 minutes at 4° C.

[3] = Protein binding assay (HT dialysis), dog plasma; assay type: in vitro ADME; conditions: pH 7.4, Mean ± SEM, n = 3, read-out: Fu Plasma (converted)
Method: as §1

[4] = Protein binding assay (HT dialysis), rat liver microsomes; assay type: in vitro ADME; conditions: pH 7.4, Rat liver microsomes 0.5 mg/mL, Mean ± SEM, n = 3, read-out: Fu Microsomes
Method: as §1

[5] = Rodent pharmacokinetic study; assay type: in vivo, Male Wistar rats; conditions: rat; for AUC(0-t) / clearance / half-life / Cmax: male, Wistar, plasma; for F: oral 3 mg/kg vs i.v. 1 mg/kg
Method: Male Wistar rats (260±50 grams) were used as experimental animals. Animals were housed individually in polypropylene cage. Two days prior to study, male Wistar rats were anesthetized with isoflurane for surgical placement of jugular vein catheter. Rats were randomly divided for oral (3 mg/kg) and intravenous (i.v) (1 mg/kg) dosing (n=3/group) and fasted overnight before oral dosing (p.o.). However, rats allocated to intravenous (i.v.) dosing food and water was provided ad libitum.
At pre-determined point, blood was collected through jugular vein and replenished with an equivalent volume of normal saline. Collected blood was transferred into a labeled eppendorf tube containing 10 μL of heparin as an anticoagulant. Typically blood samples were collected at following time points: 0.08, 0.25, 0.5, 1, 2, 4, 6, 8, and 24 h post dose. Blood was centrifuged at 4000 rpm for 10 minutes. Plasma was separated and stored frozen at −80° C. until analysis. The concentrations of the test compounds were quantified in plasma by qualified LC-MS/MS method using suitable extraction technique. The test compounds were quantified in the calibration range around 1-1000 ng/mL in plasma. Study samples were analyzed using calibration samples in the batch and quality control samples spread across the batch.
Pharmacokinetic parameters Cmax, AUCt, T1/2, clearance and bioavailability (F) were calculated by non-compartmental model using standard non-compartmental model by using Phoenix WinNonlin 6.0.2 or 6.0.3 version Software package and the results are tabulated below.

[6] = Protein binding assay (HT dialysis), human liver microsomes; assay type: in vitro ADME; conditions: pH 7.4, Human liver microsomes 0.5 mg/mL, Mean ± SEM, n = 3, read-out: Fu Microsomes (converted)
Method: as §1

[7] = Protein binding assay (HT dialysis), rat brain homogenate; assay type: in vitro ADME; conditions: pH 7.4, Mean ± SEM, n = 3, read-out: Fu Brain
Method: as §1

[8] = Protein binding assay (HT dialysis), human plasma; assay type: in vitro ADME; conditions: pH 7.4, Mean ± SEM, n = 3, read-out: Fu Plasma (converted)
Method: as §1

[9] = test system: hippocampal theta oscillations; experiment: Theta modulation in dorsal hippocampus of anesthetized rats in combination with donepezil; assay type: in vivo, Male Wistar rats; conditions: in combination with donepezil (0.3 mg/kg, i.v.), test compound 1 mg/kg

Kp at 1 h [1] | fraction unbound at 6 h, 1 μM [2] | fraction unbound at 6 h, 1 μM [3] | fraction unbound at 6 h, 1 μM [4] | AUC(0-t) ([5]; iv, i.v. 1 mg/kg) [ng·h/mL] | clearance ([5]; iv, i.v. 1 mg/kg) [mL/min/kg] | half-life ([5]; iv, i.v. 1 mg/kg) [min] | AUC(0-t) ([5]; oral 3 mg/kg) [ng·h/mL] | Cmax ([5]; oral 3 mg/kg) [ng/mL] | half-life ([5]; oral 3 mg/kg) [min] | F [5] [%] | fraction unbound at 6 h, 1 μM [6] | fraction unbound at 6 h, 1 μM [7] | fraction unbound at 6 h, 1 μM [8] | Structure (SMILES) | effect of combination treatment on θ power compared with donepezil alone ([9]; FIG. 1) | θ power levels ([9]; anesthetized rat)
0.35 ± 0.08 | 0.113 ± 0.003 | 0.115 | 0.798 ± 0.12 | 1750 ± 312 | 9.3 ± 2 | 114 ± 30 | 3520 | 1470 ± 26.5 | 78 ± 6 | 67 ± 5 | 0.938 | 0.123 ± 0.009 | 0.124 | COc1ccc(Cc2cc3c(nc2C)CN([C@H]2CCCC[C@@H]2O)C3=O)cc1 [Example 6, 6-(1S,2S-2-Hydroxycyclohexyl)-2-methyl-3-(4-methoxybenzyl)-6,7-dihydropyrrolo[3,4-b]pyridin-5-one] | – | –
0.45 ± 0.13 | 0.103 ± 0.003 | 0.116 | 0.826 ± 0.03 | 662 ± 33 | 25.1 ± 1.2 | 30 | 1010 | 861 ± 168 | 36 ± 6 | 51 ± 17 | 0.87 | 0.084 ± 0.002 | 0.192 | COc1cccc(Cc2cc3c(nc2C)CN([C@H]2CCCC[C@@H]2O)C3=O)c1 [Example 38, 6-(1S,2S-2-Hydroxycyclohexyl)-2-methyl-3-(3-methoxybenzyl)-6,7-dihydropyrrolo[3,4-b]pyridin-5-one] | significantly higher than the donepezil alone | significant increase
